Common to all, as to type: functional
The test system of assay [1] is Vibrio harveyi. As to the kind of experiment: Effect on 1-methyl-4-phenyl-2,3-dihydropyridinium-induced mutagenicity in Vibrio harveyi BB7XM assessed as number of neomycin-resistant mutants at 10 uM.
The subject of assay [2] is Vibrio harveyi. As to the kind of experiment: Effect on 1-methyl-4-phenyl-2,3-dihydropyridinium-induced mutagenicity in Vibrio harveyi BB7XM assessed as number of neomycin-resistant mutants at 100 uM.
Assay [3] has as its system Vibrio harveyi. As to the kind of experiment: Effect on 1-methyl-4-phenyl-2,3-dihydropyridinium-induced mutagenicity in Vibrio harveyi BB7XM assessed as number of neomycin-resistant mutants at 500 uM.
Assay [4] concerns Vibrio harveyi. As to the kind of experiment: Effect on 1-methyl-4-phenyl-2,3-dihydropyridinium-induced mutagenicity in Vibrio harveyi BB7XM assessed as number of neomycin-resistant mutants at 1000 uM.
The subject of assay [5] is Vibrio harveyi. Nature of the assay: Effect on 1-methyl-4-phenylpyridinium-induced mutagenicity in Vibrio harveyi BB7XM assessed as number of neomycin-resistant mutants at 10 uM.
In assay [6] the test system is Vibrio harveyi. As to the kind of experiment: Effect on 1-methyl-4-phenylpyridinium-induced mutagenicity in Vibrio harveyi BB7XM assessed as number of neomycin-resistant mutants at 100 uM.
The test system of assay [7] is Vibrio harveyi. Nature of the assay: Effect on 1-methyl-4-phenylpyridinium-induced mutagenicity in Vibrio harveyi BB7XM assessed as number of neomycin-resistant mutants at 500 uM.
Assay [8] has as its system Vibrio harveyi. Nature of the assay: Effect on 1-methyl-4-phenylpyridinium-induced mutagenicity in Vibrio harveyi BB7XM assessed as number of neomycin-resistant mutants at 1000 uM.

As to `Cn1c(=O)c2c(ncn2C)n(C)c1=O` [CAFFEINE], the Activity was 293 in assay [1]; 70 in assay [2]; 51 in assay [3]; 47 in assay [4]; 103 in assay [5]; 50 in assay [6]. For the same molecule, the Activity in assay [7] was 31; in assay [8] it was 7.
For `CC(=O)CCCCn1c(=O)c2c(ncn2C)n(C)c1=O` [PENTOXIFYLLINE], the Activity in assay [1] is recorded as 278; in assay [2], 143; in assay [3] it was 77; in assay [4], 51; in assay [5], 116; in assay [6], 78. The Activity was determined as 52 in assay [7] and 24 in assay [8].

The record behind these values is ChEMBL document CHEMBL1149602, “Impaired mutagenic activities of MPDP(+) (1-methyl-4-phenyl-2,3-dihydropyridinium) and MPP(+) (1-methyl-4-phenylpyridinium) due to their interactions with methylxanthines” (2007).
